Laboratory results published in ChEMBL document CHEMBL4266002, “Acyloxybenzyl and Alkoxyalkyl Prodrugs of a Fosmidomycin Surrogate as Antimalarial and Antitubercular Agents” (ACS Med Chem Lett, 2018).

Key:
[1] = tested on: Plasmodium falciparum; test: Antiplasmodial activity against chloroquine-resistant Plasmodium falciparum K1 infected in human erythrocytes measured after 72 hrs Malstat/NBT reagent based assay; assay type: functional, organism-based; conditions: K1, 72 h
[2] = tested on: Mycobacterium tuberculosis; test: Antimicrobial activity against Mycobacterium tuberculosis H37Ra ATCC 25177 after 7 days by luminometric method; assay type: functional, organism-based; conditions: H37Ra ATCC 25177, 168 h
[3] = tested on: MRC5; test: Cytotoxicity against human MRC5 cells after 24 hrs by resazurin assay; assay type: cell-based; conditions: MRC5, 24 h
[4] = Selectivity index, ratio of IC50 for human MRC5 cells to IC50 for chloroquine-resistant Plasmodium falciparum K1 infected in human erythrocytes; assay type: toxicity, cell-based; conditions: read-out: Ratio IC50
[5] = Selectivity index, ratio of IC50 for human MRC5 cells to IC50 for Mycobacterium tuberculosis H37Ra ATCC 25177; assay type: toxicity; conditions: read-out: Ratio IC50
[6] = Stability in human serum at 1 mM after 30 to 60 mins by UPLC method; assay type: ADME, cell-free; conditions: 1000 µM
[7] = Oral bioavailability in patient with malaria; assay type: ADME, organism-based; conditions: human, in vivo
[8] = Half life in patient with malaria; assay type: ADME, organism-based; conditions: human, in vivo

| SMILES | IC50 [1] | IC50 [2] | IC50 [3] | selectivity ratio [4] | selectivity ratio [5] | Stability [6] | bioavailability [7] | half-life [8] |
| --- | --- | --- | --- | --- | --- | --- | --- | --- |
| CN(O)C(=O)CCCP(=O)(OCOC(=O)C(C)(C)C)OCOC(=O)C(C)(C)C | 730 nM | 44300 nM | > 64000 nM | > 88 | > 1.4 | Stable | – | – |
| CN(O)C(=O)CCCP(=O)(O)O | – | > 64000 nM | – | – | – | – | – | – |
| CCCCCCCCCCCCOCCCOP(=O)(O)CCCC(=O)N(C)O | 820 nM | > 64000 nM | 55900 nM | 68 | – | – | – | – |
| CCCCCCCCCCCCCCCCOCCCOP(=O)(CCCC(=O)N(C)O)OCCCOCCCCCCCCCCCCCCCC | 42000 nM | > 64000 nM | > 64000 nM | > 1.5 | – | – | – | – |
| CCCCOCCCOP(=O)(O)CCCC(=O)N(C)O | 16000 nM | > 64000 nM | > 64000 nM | > 4 | – | – | – | – |
| CC(C)OC(=O)OCOP(=O)(CCCC(=O)N(C)O)OCOC(=O)OC(C)C | 80 nM | > 64000 nM | 55700 nM | 743 | – | Stable | – | – |
| CN(O)C(=O)CCCP(=O)(OCc1ccc(OC(=O)c2ccccc2)cc1)OCc1ccc(OC(=O)c2ccccc2)cc1 | 30 nM | 420 nM | 610 nM | 20 | 1.5 | Stable | – | – |
| CCCCCCCCCCCCCCCCOCCCOP(=O)(O)CCCC(=O)N(C)O | 950 nM | > 64000 nM | 24500 nM | 26 | – | – | – | – |
| CC(C)C(=O)Oc1ccc(COP(=O)(CCCC(=O)N(C)O)OCc2ccc(OC(=O)C(C)C)cc2)cc1 | 140 nM | 640 nM | 990 nM | 7.3 | 1.6 | Stable | – | – |
| CCCCCCCCOCCCOP(=O)(O)CCCC(=O)N(C)O | 1900 nM | > 64000 nM | > 64000 nM | > 34 | – | – | – | – |
| CC(=O)Oc1ccc(COP(=O)(CCCC(=O)N(C)O)OCc2ccc(OC(C)=O)cc2)cc1 | 490 nM | 19700 nM | 15500 nM | 32 | 0.8 | Stable | – | – |
| CN(O)C(=O)CCCP(=O)(OCc1ccc(OC(=O)C(C)(C)C)cc1)OCc1ccc(OC(=O)C(C)(C)C)cc1 | 160 nM | 430 nM | 980 nM | 6.1 | 2.3 | Stable | – | – |
| CCCCCCCCC(=O)Oc1ccc(COP(=O)(CCCC(=O)N(C)O)OCc2ccc(OC(=O)CCCCCCCC)cc2)cc1 | 300 nM | 1760 nM | 12600 nM | 42 | 7.6 | Stable | – | – |
| O=CN(O)CCCP(=O)([O-])O.[Na+] [FOSMIDOMYCIN SODIUM] | – | > 64000 nM | > 64000 nM | – | – | – | 30% | 2 h |
| CC(=O)N(O)CCCP(=O)(O)O [FR-900098] | – | > 64000 nM | – | – | – | – | – | – |
